Experimental data taken from patent US20260193170A1 (University of Copenhagen, priority 2022, published 2026).

Molecular target: T1, human Keap1 Kelch domain (Homo sapiens, UniProt Q14145)
T1 construct: human Keap1 Kelch domain (residue 321-609, UniProt Q14145); made in house; host or cells: Escherichia coli BL21 (DE3) pLysS, pRSET A vector
Assay: Fluorescence polarization (FP) competition assay, Cy5-Nrf2 peptide probe
Assay type: binding
Details: heterologous competition FP; Keap1 Kelch 14 nM, Cy5-Nrf2 probe 3 nM, 4% DMSO; mean ± SEM
Protocol: The binding affinities between the fluorescent peptide probe Cy5-Nrf2 (SEQ: Cy5-[…]-NH2) and the human Keap1 Kelch domain were determined as Kd values by saturation binding experiments, where increasing concentrations of Keap1 (0-300 nM) were added to a fixed concentration of peptide probe (3 nM). The assay was performed in a 1× HBSTET buffer (10 mM HEPES, 150 mM NaCl, 0.005% Tween20, 3 mM ethylenediaminetetraacetic acid (EDTA), 1 mM TCEP, pH=7.4) using black flat-bottom 384-well plates (Corning Life Sciences, NY), a volume of 30 μL/well, and a final DMSO concentration of 4% or 8%. The assay plate was spun down to ascertain proper mixing and removal of potential air bubbles and incubated for 10-15 min at room temperature before measuring the FP levels on a Safire2 plate reader (Tecan, Mannedorf, Switzerland). The g-factor was adjusted at each experiment so that a series of three blank wells containing probe but no Keap1 Kelch defined the baseline FP value. The Cy5-Nrf2 probe was measured at excitation/emission values of 635:670 nm. The FP values were fitted to the one-site specific binding equation: Y=Bmax×X/(Kd+X), with Bmax being the maximal FP value, X the Keap1 Kelch concentration, and Y the variable FP values. The Kd values were derived from the resulting binding saturation curve as being equal to the Keap1 Kelch concentration, where the curve is half-saturated.
The affinities between nonfluorescent small molecule Keap1 inhibitors and Keap1 Kelch were determined as Ki values in a heterologous competition FP binding assay. This was done by adding increasing concentration of test compound (2-fold serial dilutions, 12 concentrations tested per inhibition curve as duplicates) to a fixed concentration of Keap1 Kelch (14 nM) and the Cy5-Nrf2 peptide probe (3 nM) in the same HBSTET buffer and conditions as described above (final DMSO concentrations were 4%). FP values were fitted to the equation Y=Bottom+(Top−Bottom)/[1+(10^HillSlope×(log IC50−X))], where X is the logarithmic value of compound concentration. Hereby, the IC50 value was obtained, which together with the […] value and probe and Keap1 Kelch concentrations was used to calculate the theoretical competitive inhibition constant, the Ki value. 43 Ki values are shown as mean±SEM (standard error of mean) if based on two or more individual measurements.

T1 sequence (Q14145 321-609): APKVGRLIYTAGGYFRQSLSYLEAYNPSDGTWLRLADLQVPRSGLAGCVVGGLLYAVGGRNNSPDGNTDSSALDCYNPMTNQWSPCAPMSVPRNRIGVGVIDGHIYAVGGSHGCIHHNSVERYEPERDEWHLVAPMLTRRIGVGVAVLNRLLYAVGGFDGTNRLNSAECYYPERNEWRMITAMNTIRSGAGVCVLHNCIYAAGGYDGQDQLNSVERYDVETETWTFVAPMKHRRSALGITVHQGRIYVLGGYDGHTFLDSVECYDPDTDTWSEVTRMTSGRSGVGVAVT

Row | SMILES | Ki
1 | O=C(O)CCc1ccc2ccc(OCC(=O)NC3CCCCC3)cc2c1 [1a, 3-(7-(2-(Cyclohexylamino)-2-oxoethoxy)naphthalen-2-yl)propanoic acid] | 14 ± 0.8 µM
2 | O=C(O)CCc1ccc2ccc(OCC(=O)NC3CCOCC3)cc2c1 [1b, 3-(7-(2-Oxo-2-((tetrahydro-2H-pyran-4-yl)amino)ethoxy)naphthalen-2-yl)propanoic acid] | 38 ± 3 µM
3 | O=C(O)CCc1ccc2ccc(OCC(=O)NN3CCOCC3)cc2c1 [1c, 3-(7-(2-Morpholinoamino-2-oxoethoxy)naphthalen-2-yl)propanoic acid] | 268 ± 29 µM
4 | O=C(O)CCc1ccc2ccc(OCC(=O)NC3CCCCCC3)cc2c1 [1d, 3-(7-(2-(Cycloheptylamino)-2-oxoethoxy)naphthalen-2-yl)propanoic acid] | 6 ± 0.3 µM
5 | COc1ccc(NC(=O)COc2ccc3ccc(CCC(=O)O)cc3c2)cc1 [1e, 3-(7-(2-((4-Methoxyphenyl)amino)-2-oxoethoxy)naphthalen-2-yl)propanoic acid] | 75 ± 10 µM
6 | Cc1cc(C)c(NC(=O)COc2ccc3ccc(CCC(=O)O)cc3c2)c(C)c1 [1f, 3-(7-(2-(Mesitylamino)-2-oxoethoxy)naphthalen-2-yl)propanoic acid] | 22 ± 0.8 µM
7 | Cc1cc(C)c(C)c(NC(=O)COc2ccc3ccc(CCC(=O)O)cc3c2)c1C [1g, 3-(7-(2-Oxo-2-((2,3,5,6-tetramethylphenyl)amino)ethoxy)naphthalen-2-yl)propanoic acid] | 196 ± 24 µM
8 | O=C(O)CCc1ccc2ccc(OCC(=O)Nc3ccccc3)cc2c1 [1h, 3-(7-(2-oxo-2-(phenylamino)ethoxy)naphthalen-2-yl)propanoic acid] | 7.8 ± 0.1 µM
9 | O=C(O)CC(c1ccccc1)c1ccc2ccc(OCC(=O)NC3CCCCCC3)cc2c1 (centres unmarked) [2a, 3-(7-(2-(Cycloheptylamino)-2-oxoethoxy)naphthalen-2-yl)-3-phenylpropanoic acid] | 1.1 ± 0.1 µM
10 | O=C(O)CC(c1ccc(O)cc1)c1ccc2ccc(OCC(=O)NC3CCCCCC3)cc2c1 (centres unmarked) [2b, 3-(7-(2-(Cycloheptylamino)-2-oxoethoxy)naphthalen-2-yl)-3-(4-hydroxyphenyl)propanoic acid] | 0.181 ± 0.02 µM
11 | O=C(O)CC(c1ccc(Cl)cc1)c1ccc2ccc(OCC(=O)NC3CCCCCC3)cc2c1 (centres unmarked) [2c, 3-(4-Chlorophenyl)-3-(7-(2-(cycloheptylamino)-2-oxoethoxy)naphthalen-2-yl)propanoic acid] | 0.294 ± 0.03 µM
12 | COc1ccc(C(CC(=O)O)c2ccc3ccc(OCC(=O)NC4CCCCCC4)cc3c2)cc1 (centres unmarked) [2d, 3-(7-(2-(Cycloheptylamino)-2-oxoethoxy)naphthalen-2-yl)-3-(4-methoxyphenyl)propanoic acid] | 0.032 ± 0.03 µM
13 | CCOc1ccc(C(CC(=O)O)c2ccc3ccc(OCC(=O)NC4CCCCCC4)cc3c2)cc1 (centres unmarked) [2e, 3-(7-(2-(Cycloheptylamino)-2-oxoethoxy)naphthalen-2-yl)-3-(4-ethoxyphenyl)propanoic acid] | 0.041 ± 0.005 µM
14 | CC(C)Oc1ccc(C(CC(=O)O)c2ccc3ccc(OCC(=O)NC4CCCCCC4)cc3c2)cc1 (centres unmarked) [2f, 3-(7-(2-(Cycloheptylamino)-2-oxoethoxy)naphthalen-2-yl)-3-(4-isopropoxyphenyl)propanoic acid] | 0.101 ± 0.005 µM
15 | O=C(O)CC(c1cccc(O)c1)c1ccc2ccc(OCC(=O)NC3CCCCCC3)cc2c1 (centres unmarked) [2g, 3-(7-(2-(Cycloheptylamino)-2-oxoethoxy)naphthalen-2-yl)-3-(3-hydroxyphenyl)propanoic acid] | 0.203 ± 0.03 µM
16 | COc1cccc(C(CC(=O)O)c2ccc3ccc(OCC(=O)NC4CCCCCC4)cc3c2)c1 (centres unmarked) [2h, 3-(7-(2-(Cycloheptylamino)-2-oxoethoxy)naphthalen-2-yl)-3-(3-methoxyphenyl)propanoic acid] | 0.284 ± 0.03 µM

Other lines, results leading:

Row | Ki | SMILES
17 | 0.054 ± 0.006 µM | O=C(O)CC(c1cccc(Cl)c1)c1ccc2ccc(OCC(=O)NC3CCCCCC3)cc2c1 (centres unmarked) [2i, 3-(3-Chlorophenyl)-3-(7-(2-(cycloheptylamino)-2-oxoethoxy)naphthalen-2-yl)propanoic acid]
18 | 0.61 ± 0.06 µM | COc1ccc(C(CC(=O)O)c2ccc3ccc(OCC(=O)NC4CCCCCC4)cc3c2)cc1C (centres unmarked) [2j, 3-(7-(2-(Cycloheptylamino)-2-oxoethoxy)naphthalen-2-yl)-3-(4-methoxy-3-methylphenyl)propanoic acid]
19 | 0.027 ± 0.003 µM | COc1ccc(C(CC(=O)O)c2ccc3ccc(OCC(=O)NC4CCCCCC4)cc3c2)c(C)c1 (centres unmarked) [2k, 3-(7-(2-(Cycloheptylamino)-2-oxoethoxy)naphthalen-2-yl)-3-(4-methoxy-2-methylphenyl)propanoic acid]
20 | 0.06 ± 0.008 µM | Cc1c(Cl)cccc1C(CC(=O)O)c1ccc2ccc(OCC(=O)NC3CCCCCC3)cc2c1 (centres unmarked) [2l, 3-(3-chloro-2-methylphenyl)-3-(7-(2-(cycloheptylamino)-2-oxoethoxy)naphthalen-2-yl)propanoic acid]
21 | 0.023 ± 0.002 µM | O=C(O)CC(c1ccc2c(c1)OCO2)c1ccc2ccc(OCC(=O)NC3CCCCCC3)cc2c1 (centres unmarked) [2m, 3-(benzo[d][1,3]dioxol-5-yl)-3-(7-(2-(cycloheptylamino)-2-oxoethoxy)naphthalen-2-yl)propanoic acid]
22 | 0.008 ± 0.002 µM | Cc1cc2c(cc1C(CC(=O)O)c1ccc3ccc(OCC(=O)NC4CCCCCC4)cc3c1)OCO2 (centres unmarked) [2n, 3-(7-(2-(cycloheptylamino)-2-oxoethoxy)naphthalen-2-yl)-3-(6-methylbenzo[d][1,3]dioxol-5-yl)propanoic acid]
23 | 0.0035 ± 0.0006 µM | COc1cc(C(CC(=O)O)c2ccc3ccc(OCC(=O)NC4CCCCCC4)cc3c2)cc2nnn(C)c12 (centres unmarked) [2o, 3-(7-(2-(cycloheptylamino)-2-oxoethoxy)naphthalen-2-yl)-3-(7-methoxy-1-methyl-1H-benzo[d][1,2,3]triazol-5-yl)propanoic acid]
24 | 0.0059 ± 0.0007 µM | CCn1nnc2c(C)c(C(CC(=O)O)c3ccc4ccc(OCC(=O)NC5CCCCCC5)cc4c3)ccc21 (centres unmarked) [2p, 3-(7-(2-(cycloheptylamino)-2-oxoethoxy)naphthalen-2-yl)-3-(1-ethyl-4-methyl-1H-benzo[d][1,2,3]triazol-5-yl)propanoic acid]
25 | 0.036 ± 0.003 µM | O=C(O)CC(c1ccc2c(c1)CCO2)c1ccc2ccc(OCC(=O)NC3CCCCCC3)cc2c1 (centres unmarked) [2q, 3-(7-(2-(cycloheptylamino)-2-oxoethoxy)naphthalen-2-yl)-3-(2,3-dihydrobenzofuran-5-yl)propanoic acid]
26 | 0.034 ± 0.005 µM | O=C(O)CC(c1ccc2c(c1)OC(F)(F)O2)c1ccc2ccc(OCC(=O)NC3CCCCCC3)cc2c1 (centres unmarked) [2r, 3-(7-(2-(cycloheptylamino)-2-oxoethoxy)naphthalen-2-yl)-3-(2,2-difluorobenzo[d][1,3]dioxol-5-yl)propanoic acid]
27 | 0.015 ± 0.003 µM | O=C(O)CC(c1ccc2c(c1)OCCO2)c1ccc2ccc(OCC(=O)NC3CCCCCC3)cc2c1 (centres unmarked) [2s, 3-(7-(2-(cycloheptylamino)-2-oxoethoxy)naphthalen-2-yl)-3-(2,3-dihydrobenzo[b][1,4]dioxin-6-yl)propanoic acid]
28 | 0.038 ± 0.002 µM | O=C(O)CC(c1ccc2ccc(OCC(=O)NC3CCCCCC3)cc2c1)c1ccc2occc2c1 (centres unmarked) [2t, 3-(Benzofuran-5-yl)-3-(7-(2-(cycloheptylamino)-2-oxoethoxy)naphthalen-2-yl)propanoic acid]
29 | 0.009 ± 0.003 µM | Cc1cc2c(cc1C(CC(=O)O)c1ccc3ccc(OCC(=O)NC4CCCCCC4)cc3c1)OCCO2 (centres unmarked) [2u, 3-(7-(2-(Cycloheptylamino)-2-oxoethoxy)naphthalen-2-yl)-3-(7-methyl-2,3-dihydrobenzo[b][1,4]dioxin-6-yl)propanoic acid]
